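Following 48 hours of exposure in 96-well plates, responses at five concentrations were used to interpolate endpoints linearly. TGI: total growth inhibition.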
Columns and labels:
Assay in all cases: DTP human tumour cell line panel, 48 h
UACC-257 melanoma = tested on: UACC-257 melanoma
SNB-19 CNS = tested on: SNB-19 CNS
UACC-62 melanoma = tested on: UACC-62 melanoma
HCC-2998 colon = tested on: HCC-2998 colon
RXF 393 renal = tested on: RXF 393 renal
SF-539 CNS = tested on: SF-539 CNS
LXFL 529 NSCLC = tested on: LXFL 529 NSCLC
SF-295 CNS = tested on: SF-295 CNS
ACHN renal = tested on: ACHN renal
DMS 273 small cell lung = tested on: DMS 273 small cell lung
OVCAR-3 ovarian = tested on: OVCAR-3 ovarian
COLO 205 colon = tested on: COLO 205 colon
NCI-H522 lung = tested on: NCI-H522 lung
NCI-H23 lung = tested on: NCI-H23 lung
DLD-1 colon = tested on: DLD-1 colon
HOP-18 NSCLC = tested on: HOP-18 NSCLC
SF-268 CNS = tested on: SF-268 CNS
HCT-116 colon = tested on: HCT-116 colon
NCI-H226 lung = tested on: NCI-H226 lung
EKVX NSCLC = tested on: EKVX NSCLC
K-562 leukemia = tested on: K-562 leukemia
XF 498 CNS = tested on: XF 498 CNS
SK-MEL-5 melanoma = tested on: SK-MEL-5 melanoma
SN12C renal = tested on: SN12C renal
M14 melanoma = tested on: M14 melanoma
KM20L2 colon = tested on: KM20L2 colon
HCT-15 colon = tested on: HCT-15 colon
CCRF-CEM leukemia = tested on: CCRF-CEM leukemia
UO-31 renal = tested on: UO-31 renal
SK-MEL-2 melanoma = tested on: SK-MEL-2 melanoma
HT29 colon = tested on: HT29 colon
A549 NSCLC = tested on: A549 NSCLC
TK-10 renal = tested on: TK-10 renal
LOX IMVI melanoma = tested on: LOX IMVI melanoma
DMS 114 small cell lung = tested on: DMS 114 small cell lung
IGROV1 ovarian = tested on: IGROV1 ovarian
OVCAR-8 ovarian = tested on: OVCAR-8 ovarian
U251 CNS = tested on: U251 CNS
NCI-H460 lung = tested on: NCI-H460 lung
SNB-75 CNS = tested on: SNB-75 CNS
SR leukemia = tested on: SR leukemia
SK-MEL-28 melanoma = tested on: SK-MEL-28 melanoma
SK-OV-3 ovarian = tested on: SK-OV-3 ovarian
HL-60(TB) leukemia = tested on: HL-60(TB) leukemia
M19-MEL melanoma = tested on: M19-MEL melanoma
MOLT-4 leukemia = tested on: MOLT-4 leukemia
RPMI-8226 leukemia = tested on: RPMI-8226 leukemia
OVCAR-4 ovarian = tested on: OVCAR-4 ovarian
KM12 colon = tested on: KM12 colon
OVCAR-5 ovarian = tested on: OVCAR-5 ovarian
MALME-3M melanoma = tested on: MALME-3M melanoma
HOP-92 NSCLC = tested on: HOP-92 NSCLC
786-0 renal = tested on: 786-0 renal
HOP-62 NSCLC = tested on: HOP-62 NSCLC
SW-620 colon = tested on: SW-620 colon
A498 renal = tested on: A498 renal
SNB-78 CNS = tested on: SNB-78 CNS
CAKI-1 renal = tested on: CAKI-1 renal

With `Cc1ccc(S(=O)(=O)n2c(-c3ccccc3)c(-c3ccccc3)c3ccccc32)cc1` as the compound, how does the TGI (UACC-257 melanoma) read?
Its TGI is greater than 100 µM.

What about the TGI (SNB-19 CNS) of the same compound?
Its TGI is greater than 100 µM.

And the TGI (UACC-62 melanoma)?
Its TGI is greater than 100 µM.

What about the TGI (HCC-2998 colon) of the same compound?
The TGI was greater than 100 µM.

What about the TGI (RXF 393 renal) of the same compound?
The TGI was greater than 100 µM.

And the TGI (SF-539 CNS)?
The TGI was greater than 100 µM.

What about the TGI (LXFL 529 NSCLC) of the same compound?
The TGI was greater than 100 µM.

What about the TGI (SF-295 CNS) of the same compound?
The TGI was greater than 100 µM.

And the TGI (ACHN renal)?
The TGI was greater than 100 µM.

What about the TGI (DMS 273 small cell lung) of the same compound?
Its TGI is greater than 100 µM.

What about the TGI (OVCAR-3 ovarian) of the same compound?
Its TGI is greater than 100 µM.

And the TGI (COLO 205 colon)?
Its TGI is greater than 100 µM.

What about the TGI (NCI-H522 lung) of the same compound?
The TGI was greater than 100 µM.

What about the TGI (NCI-H23 lung) of the same compound?
The TGI was greater than 100 µM.

What about the TGI (DLD-1 colon) of the same compound?
The TGI was greater than 100 µM.

And the TGI (HOP-18 NSCLC)?
Its TGI is greater than 100 µM.

What about the TGI (SF-268 CNS) of the same compound?
The TGI was greater than 100 µM.

What about the TGI (HCT-116 colon) of the same compound?
Its TGI is greater than 100 µM.

And the TGI (NCI-H226 lung)?
The TGI was greater than 100 µM.

And the TGI (EKVX NSCLC)?
The TGI was greater than 100 µM.

What about the TGI (K-562 leukemia) of the same compound?
The TGI was greater than 100 µM.

And the TGI (XF 498 CNS)?
Its TGI is greater than 100 µM.

And the TGI (SK-MEL-5 melanoma)?
Its TGI is greater than 100 µM.

And the TGI (SN12C renal)?
The TGI was greater than 100 µM.

And the TGI (M14 melanoma)?
Its TGI is greater than 100 µM.

What about the TGI (KM20L2 colon) of the same compound?
Its TGI is greater than 100 µM.

What about the TGI (HCT-15 colon) of the same compound?
Its TGI is greater than 100 µM.

What about the TGI (CCRF-CEM leukemia) of the same compound?
The TGI was greater than 100 µM.

What about the TGI (UO-31 renal) of the same compound?
Its TGI is greater than 100 µM.

And the TGI (SK-MEL-2 melanoma)?
The TGI was greater than 100 µM.

And the TGI (HT29 colon)?
Its TGI is greater than 100 µM.

And the TGI (A549 NSCLC)?
Its TGI is greater than 100 µM.

What about the TGI (TK-10 renal) of the same compound?
The TGI was greater than 100 µM.

What about the TGI (LOX IMVI melanoma) of the same compound?
The TGI was greater than 100 µM.

What about the TGI (DMS 114 small cell lung) of the same compound?
Its TGI is greater than 100 µM.

What about the TGI (IGROV1 ovarian) of the same compound?
Its TGI is greater than 100 µM.

And the TGI (OVCAR-8 ovarian)?
Its TGI is greater than 100 µM.

And the TGI (U251 CNS)?
Its TGI is greater than 100 µM.

What about the TGI (NCI-H460 lung) of the same compound?
The TGI was greater than 100 µM.

What about the TGI (SNB-75 CNS) of the same compound?
Its TGI is greater than 100 µM.

What about the TGI (SR leukemia) of the same compound?
The TGI was greater than 100 µM.

And the TGI (SK-MEL-28 melanoma)?
The TGI was greater than 100 µM.

And the TGI (SK-OV-3 ovarian)?
Its TGI is greater than 100 µM.

What about the TGI (HL-60(TB) leukemia) of the same compound?
Its TGI is greater than 100 µM.

And the TGI (M19-MEL melanoma)?
The TGI was greater than 100 µM.

What about the TGI (MOLT-4 leukemia) of the same compound?
Its TGI is greater than 100 µM.

And the TGI (RPMI-8226 leukemia)?
The TGI was greater than 100 µM.

What about the TGI (OVCAR-4 ovarian) of the same compound?
Its TGI is greater than 100 µM.

And the TGI (KM12 colon)?
Its TGI is greater than 100 µM.

And the TGI (OVCAR-5 ovarian)?
Its TGI is greater than 100 µM.

What about the TGI (MALME-3M melanoma) of the same compound?
Its TGI is greater than 100 µM.

What about the TGI (HOP-92 NSCLC) of the same compound?
The TGI was greater than 100 µM.

And the TGI (786-0 renal)?
The TGI was greater than 100 µM.

And the TGI (HOP-62 NSCLC)?
The TGI was greater than 100 µM.

What about the TGI (SW-620 colon) of the same compound?
The TGI was greater than 100 µM.

Which TGI (UACC-257 melanoma) does the source give for `Cc1cc(C)nc(NS(=O)(=O)c2ccc(Nc3c4ccccc4nc4c(C(=O)Nc5ccc(S(=O)(=O)Nc6cc(C)on6)cc5)cccc34)cc2)n1` here?
The TGI was 66.6 µM.

What about the TGI (SNB-19 CNS) of the same compound?
Its TGI is 52.1 µM.

What about the TGI (UACC-62 melanoma) of the same compound?
Its TGI is 34 µM.

What about the TGI (HCC-2998 colon) of the same compound?
Its TGI is 30.9 µM.

And the TGI (RXF 393 renal)?
Its TGI is 38.2 µM.

What about the TGI (SF-539 CNS) of the same compound?
Its TGI is 34.7 µM.

And the TGI (LXFL 529 NSCLC)?
The TGI was 33 µM.

What about the TGI (SF-295 CNS) of the same compound?
The TGI was 63.1 µM.

What about the TGI (ACHN renal) of the same compound?
Its TGI is greater than 100 µM.

What about the TGI (DMS 273 small cell lung) of the same compound?
Its TGI is 55.8 µM.

What about the TGI (OVCAR-3 ovarian) of the same compound?
Its TGI is 33.3 µM.

And the TGI (COLO 205 colon)?
Its TGI is 34.1 µM.

And the TGI (NCI-H522 lung)?
The TGI was 29 µM.

What about the TGI (NCI-H23 lung) of the same compound?
The TGI was 51.1 µM.

And the TGI (A498 renal)?
Its TGI is 51.5 µM.

And the TGI (DLD-1 colon)?
The TGI was 78.8 µM.

What about the TGI (SNB-78 CNS) of the same compound?
Its TGI is greater than 100 µM.

What about the TGI (HOP-18 NSCLC) of the same compound?
Its TGI is 53.4 µM.

What about the TGI (CAKI-1 renal) of the same compound?
The TGI was 46.3 µM.

And the TGI (SF-268 CNS)?
Its TGI is 58 µM.

And the TGI (HCT-116 colon)?
The TGI was 31.2 µM.

What about the TGI (NCI-H226 lung) of the same compound?
The TGI was 46.5 µM.

And the TGI (EKVX NSCLC)?
Its TGI is 66.7 µM.

What about the TGI (K-562 leukemia) of the same compound?
The TGI was 80.1 µM.

And the TGI (XF 498 CNS)?
The TGI was 53.5 µM.

And the TGI (SK-MEL-5 melanoma)?
Its TGI is 36.3 µM.

And the TGI (SN12C renal)?
The TGI was 66.5 µM.

And the TGI (M14 melanoma)?
Its TGI is 41.7 µM.

What about the TGI (KM20L2 colon) of the same compound?
The TGI was 44.4 µM.

What about the TGI (HCT-15 colon) of the same compound?
Its TGI is greater than 100 µM.

And the TGI (UO-31 renal)?
The TGI was 63.2 µM.

What about the TGI (HT29 colon) of the same compound?
The TGI was 35.5 µM.

And the TGI (A549 NSCLC)?
The TGI was greater than 100 µM.

And the TGI (TK-10 renal)?
Its TGI is 96 µM.

What about the TGI (LOX IMVI melanoma) of the same compound?
Its TGI is 37.1 µM.

What about the TGI (DMS 114 small cell lung) of the same compound?
The TGI was 35.3 µM.

And the TGI (IGROV1 ovarian)?
Its TGI is 77.1 µM.

What about the TGI (OVCAR-8 ovarian) of the same compound?
Its TGI is 39.3 µM.

What about the TGI (U251 CNS) of the same compound?
Its TGI is 41.4 µM.

What about the TGI (NCI-H460 lung) of the same compound?
Its TGI is 61 µM.

And the TGI (SNB-75 CNS)?
Its TGI is 69 µM.

What about the TGI (SR leukemia) of the same compound?
Its TGI is 81.6 µM.

And the TGI (SK-MEL-28 melanoma)?
Its TGI is 52.3 µM.

And the TGI (SK-OV-3 ovarian)?
The TGI was 61.7 µM.

What about the TGI (HL-60(TB) leukemia) of the same compound?
Its TGI is 61.4 µM.

What about the TGI (M19-MEL melanoma) of the same compound?
Its TGI is 47.2 µM.

And the TGI (MOLT-4 leukemia)?
Its TGI is 64 µM.

What about the TGI (RPMI-8226 leukemia) of the same compound?
The TGI was 56.3 µM.

And the TGI (OVCAR-4 ovarian)?
The TGI was 65.5 µM.

What about the TGI (KM12 colon) of the same compound?
Its TGI is 35.7 µM.

What about the TGI (OVCAR-5 ovarian) of the same compound?
The TGI was 59 µM.

What about the TGI (MALME-3M melanoma) of the same compound?
Its TGI is 49 µM.

What about the TGI (HOP-92 NSCLC) of the same compound?
Its TGI is 39.5 µM.

What about the TGI (786-0 renal) of the same compound?
The TGI was 34.8 µM.

And the TGI (HOP-62 NSCLC)?
Its TGI is 44.2 µM.

What about the TGI (SW-620 colon) of the same compound?
Its TGI is 51.4 µM.
